Experiment: Pharmacokinetics after single inhaled dose (LC-MS/MS)
Type: in vivo, human
Experimental: Blood samples were obtained at 1; 2; 4; 7; 10; 15; 20; 30; 45 min and 1; 1.5; 2; 3; 4 hours after administration.
PK parameters were generated by algebraic analysis of the concentration versus time plots for each individual. The analysis was carried out using the software Phoenix WinNonlin 6.3.

**Q.** For `CN(C)CCc1c[nH]c2ccc(O)cc12` [bufotenine], which “Samples with bufotenine concentration above LLOQ” value (after inhaled 5-MeO-DMT, LLOQ 25 pg/ml) is on record?
**A.** Only in few samples

**Q.** And the “Bufotenine blood concentrations under uptitration scheme vs single dose” value (subjects receiving an uptitration scheme included)?
**A.** Substantially similar observations
